Experimental data as given in patent publication US9981923B2, “1,2,3 Triazole antifungal agents and preparation thereof” (COUNCIL OF SCIENTIFIC & INDUSTRIAL RESEARCH, priority 2014, dated 2018).
In brackets after ≈: the same amount, converted by molar mass. Like-named read-outs stand apart in the source and are kept apart here.

Legend:
Experiment in all cases: Antifungal susceptibility by microbroth dilution (CLSI)
Assay type in all cases: cell-based
[1] = test system: Aspergillus fumigatus MCC 1046
Method: (§1) The synthesized compounds were evaluated for antifungal susceptibility by microbroth dilution method according to the recommendations of the Clinical Laboratory Standards Institute (CLSI 2008). Briefly, appropriate amount of compounds were dissolved in dimethyl sulfoxide to get 100× final strength. The stock was then diluted 1:50 in RPMI/YPG medium and 200 μl from this was added to the first row of a 96-well microtitre plate. The compounds were serially diluted two fold in successive wells to get a range of 1-128 μg/ml. Fungal yeast cells (˜2×10^3 cfu/mL), freshly grown in YPG broth in logarithmic phase, were suspended in the medium and inoculated (100 μl) in the wells of the plate. For filamentous fungi, 2×10^4 spores/mL were added. The microtitre plate was incubated for 48 h, and the absorbance was measured at 600 nm by using microtitre plate reader to assess cell growth.

[2] = test system: Aspergillus niger ATCC 10578
Method: as §1

[3] = test system: Candida albicans ATCC 24433
Method: as §1

[4] = test system: Candida glabrata NCYC 388
Method: as §1

[5] = test system: Cryptococcus neoformans ATCC 34664
Method: as §1

[6] = test system: Candida albicans ATCC 10231
Method: as §1

C. tropicalis ATCC 750 = conditions: Candida tropicalis, ATCC750; Table 2
Method: as §1

[7] = Table 1, 48 h, >90% inhibition of growth
[8] = Table 1, 48 h, >90% inhibition of growth, range 1-128 μg/ml
[9] = Aspergillus fumigatus, MCC1046, Table 2, read-out: MIC values
[10] = Aspergillus niger, ATCC10578, Table 2, read-out: MIC values
[11] = Candida albicans, ATCC10231, Table 2, read-out: MIC values
[12] = Candida albicans, ATCC24433, Table 2, read-out: MIC values
[13] = Nakaseomyces glabratus, NCYC388, Table 2, read-out: MIC values
[14] = Cryptococcus neoformans, ATCC34664, Table 2, read-out: MIC values

Row | SMILES | MIC [1, 7] [µg/mL] | MIC [2, 7] [µg/mL] | MIC [3, 8] [µg/mL] | MIC [4, 7] [µg/mL] | MIC [5, 7] [µg/mL] | MIC [6, 7] [µg/mL] | MIC [1, 9] [µg/mL] | MIC [2, 10] [µg/mL] | MIC (C. tropicalis ATCC 750) [µg/mL] | MIC [6, 11] [µg/mL] | MIC [3, 12] [µg/mL] | MIC [4, 13] [µg/mL] | MIC [5, 14] [µg/mL]
1 | CCC(O)(c1ccccc1)c1cn(-c2cc(Cl)ccc2O)nn1 (stereo not shown) [Compound 2da] | 128 (≈ 388 µM) | 64 (≈ 194 µM) | 128 (≈ 388 µM) | 128 (≈ 388 µM) | >128 |  |  |  |  |  |  |  | 
2 | CCC(O)(c1ccccc1)c1cn(-c2ccc(Cl)cc2O)nn1 (stereo not shown) [Compound 2db] | 128 (≈ 388 µM) | 128 (≈ 388 µM) | >128 | 64 (≈ 194 µM) | 128 (≈ 388 µM) | 128 (≈ 388 µM) |  |  |  |  |  |  | 
3 | CCCCC(O)(Cc1cn(-c2ccc(Cl)cc2O)nn1)c1ccccc1 (stereo not shown) [Compound 2hb] | >128 | >128 | 64 (≈ 172 µM) | 64 (≈ 172 µM) | 32 (≈ 86.1 µM) | >128 |  |  |  |  |  |  | 
4 | CC(O)(Cc1cn(-c2cc(Cl)ccc2O)nn1)c1ccc(F)cc1F (stereo not shown) [Compound 3aa, 4-Chloro-2-(4-(2-(2,4-difluorophenyl)-2-hydroxypropyl)-1H-1,2,3-triazol-1-yl)phenol] |  |  |  |  |  |  | > 256 | 128 (≈ 350 µM) | 128 (≈ 350 µM) | 32 (≈ 87.5 µM) | 32 (≈ 87.5 µM) | 32 (≈ 87.5 µM) | 64 (≈ 175 µM)
5 | CC(O)(Cc1cn(-c2ccc(Cl)cc2O)nn1)c1ccc(F)cc1F (stereo not shown) [Compound 3ab, 5-Chloro-2-(4-(2-(2,4-difluorophenyl)-2-hydroxypropyl)-1H-1,2,3-triazol-1-yl)phenol] |  |  |  |  |  |  | 64 (≈ 175 µM) | 64 (≈ 175 µM) | 64 (≈ 175 µM) | 32 (≈ 87.5 µM) | 16 (≈ 43.7 µM) | 32 (≈ 87.5 µM) | 32 (≈ 87.5 µM)
6 | CC(O)(Cc1cn(-c2ccc(F)cc2O)nn1)c1ccc(F)cc1F (stereo not shown) [Compound 3ac, 2-(4-(2-(2,4-Difluorophenyl)-2-hydroxypropyl)-1H-1,2,3-triazol-1-yl)-5-fluorophenol] |  |  |  |  |  |  | 64 (≈ 183 µM) | 128 (≈ 366 µM) | 128 (≈ 366 µM) |  | 8 (≈ 22.9 µM) |  | 128 (≈ 366 µM)
7 | CC(O)(Cc1cn(-c2ccccc2O)nn1)c1ccc(F)cc1F (stereo not shown) [Compound 3ad, 2-(4-(2-(2,4-Difluorophenyl)-2-hydroxypropyl)-1H-1,2,3-triazol-1-yl)phenol] |  |  |  |  |  |  | 128 (≈ 386 µM) | 128 (≈ 386 µM) | 256 (≈ 773 µM) |  | 8 (≈ 24.1 µM) |  | 128 (≈ 386 µM)
8 | CC(O)(Cc1cn(-c2cc(Cl)ccc2O)nn1)c1ccc(Cl)cc1Cl (stereo not shown) [Compound 3ba, 4-Chloro-2-(4-(2-(2,4-dichlorophenyl)-2-hydroxypropyl)-1H-1,2,3-triazol-1-yl)phenol] |  |  |  |  |  |  | > 256 | > 256 | > 256 |  | 32 (≈ 80.3 µM) |  | > 256
9 | CC(O)(Cc1cn(-c2ccc(Cl)cc2O)nn1)c1ccc(Cl)cc1Cl (stereo not shown) [Compound 3bb, 5-Chloro-2-(4-(2-(2,4-dichlorophenyl)-2-hydroxypropyl)-1H-1,2,3-triazol-1-yl)phenol] |  |  |  |  |  |  | 16 (≈ 40.1 µM) | 32 (≈ 80.3 µM) | 32 (≈ 80.3 µM) | 16 (≈ 40.1 µM) | 4 (≈ 10 µM) | 16 (≈ 40.1 µM) | 8 (≈ 20.1 µM)
10 | CC(O)(Cc1cn(-c2ccc(F)cc2O)nn1)c1ccc(Cl)cc1Cl (stereo not shown) [Compound 3bc, 2-(4-(2-(2,4-Dichlorophenyl)-2-hydroxypropyl)-1H-1,2,3-triazol-1-yl)-5-fluorophenol] |  |  |  |  |  |  | 64 (≈ 167 µM) | 64 (≈ 167 µM) | 32 (≈ 83.7 µM) | 8 (≈ 20.9 µM) | 16 (≈ 41.9 µM) | 16 (≈ 41.9 µM) | 16 (≈ 41.9 µM)
11 | CC(O)(Cc1cn(-c2ccccc2O)nn1)c1ccc(Cl)cc1Cl (stereo not shown) [Compound 3bd, 2-(4-(2-(2,4-Dichlorophenyl)-2-hydroxypropyl)-1H-1,2,3-triazol-1-yl)phenol] |  |  |  |  |  |  | 16 (≈ 43.9 µM) | 32 (≈ 87.9 µM) | 64 (≈ 176 µM) |  | 8 (≈ 22 µM) |  | 32 (≈ 87.9 µM)
12 | Oc1cc(Cl)ccc1-n1cc(CC(O)c2ccc(C(F)(F)F)cc2F)nn1 (stereo not shown) [Compound 3cb, 5-Chloro-2-(4-(2-(2-fluoro-4-(trifluoromethyl)phenyl)-2-hydroxyethyl)-1H-1,2,3-triazol-1-yl)phenol] |  |  |  |  |  |  | > 256 | > 256 | > 256 |  | 16 (≈ 39.8 µM) |  | > 256
13 | Oc1cc(F)ccc1-n1cc(CC(O)c2ccc(C(F)(F)F)cc2F)nn1 (stereo not shown) [Compound 3cc, 5-Fluoro-2-(4-(2-(2-fluoro-4-(trifluoromethyl)phenyl)-2-hydroxyethyl)-1H-1,2,3-triazol-1-yl)phenol] |  |  |  |  |  |  | > 256 | > 256 | > 256 |  | 128 (≈ 332 µM) |  | > 256
14 | CC(O)(Cc1cn(-c2cc(Cl)ccc2O)nn1)c1ccc(F)cc1 (stereo not shown) [Compound 3da, 4-Chloro-2-(4-(2(4fluorophenyl)-2-hydroxypropyl)-1H-1,2,3-triazol-1-yl)phenol] |  |  |  |  |  |  | 64 (≈ 184 µM) | 128 (≈ 368 µM) | 128 (≈ 368 µM) | 32 (≈ 92 µM) | 32 (≈ 92 µM) | 64 (≈ 184 µM) | 64 (≈ 184 µM)
15 | CC(O)(Cc1cn(-c2ccc(Cl)cc2O)nn1)c1ccc(F)cc1 (stereo not shown) [Compound 3db, 5-Chloro-2-(4-(2-(4-fluorophenyl)-2-hydroxypropyl)-1H-1,2,3-triazol-1-yl)phenol] |  |  |  |  |  |  | 32 (≈ 92 µM) | 64 (≈ 184 µM) | 128 (≈ 368 µM) |  | 16 (≈ 46 µM) |  | 128 (≈ 368 µM)
16 | CC(O)(Cc1cn(-c2ccc(F)cc2O)nn1)c1ccc(F)cc1 (stereo not shown) [Compound 3dc, 5-Fluoro-2-(4-(2-(4-fluorophenyl)-2-hydroxypropyl)-1H-1,2,3-triazol-1-yl)phenol] |  |  |  |  |  |  | 128 (≈ 386 µM) | 256 (≈ 773 µM) | > 256 |  | 64 (≈ 193 µM) |  | 256 (≈ 773 µM)
17 | CC(O)(Cc1cn(-c2ccccc2O)nn1)c1ccc(F)cc1 (stereo not shown) [Compound 3dd, 2-(4-(2-(4-Fluorophenyl)-2-hydroxypropyl)-1H-1,2,3-triazol-1-yl)phenol] |  |  |  |  |  |  | 256 (≈ 817 µM) | 256 (≈ 817 µM) | > 256 |  | 64 (≈ 204 µM) |  | 256 (≈ 817 µM)
18 | CC(O)(Cc1cn(-c2cc(Cl)ccc2O)nn1)c1ccc(Cl)cc1 (stereo not shown) [Compound 3ea, 4-Chloro-2-(4-(2-(4-chlorophenyl)-2-hydroxypropyl)-1H-1,2,3-triazol-1-yl)phenol] |  |  |  |  |  |  | 64 (≈ 176 µM) | 64 (≈ 176 µM) | 64 (≈ 176 µM) | 8 (≈ 22 µM) | 16 (≈ 43.9 µM) | 16 (≈ 43.9 µM) | 32 (≈ 87.9 µM)
19 | CC(O)(Cc1cn(-c2ccc(Cl)cc2O)nn1)c1ccc(Cl)cc1 (stereo not shown) [Compound 3eb, 5-Chloro-2-(4-(2-(4-chlorophenyl)-2-hydroxypropyl)-1H-1,2,3-triazol-1-yl)phenol] |  |  |  |  |  |  | 64 (≈ 176 µM) | 64 (≈ 176 µM) | 64 (≈ 176 µM) | 16 (≈ 43.9 µM) | 32 (≈ 87.9 µM) | 32 (≈ 87.9 µM) | 32 (≈ 87.9 µM)
20 | CC(O)(Cc1cn(-c2ccc(F)cc2O)nn1)c1ccc(Cl)cc1 (stereo not shown) [Compound 3ec, 2-(4-(2-(4-Chlorophenyl)-2-hydroxypropyl)-1H-1,2,3-triazol-1-yl)-5-fluorophenol] |  |  |  |  |  |  | 64 (≈ 184 µM) | 128 (≈ 368 µM) | 128 (≈ 368 µM) |  | 8 (≈ 23 µM) |  | 128 (≈ 368 µM)
21 | CC(O)(Cc1cn(-c2ccccc2O)nn1)c1ccc(Cl)cc1 (stereo not shown) [Compound 3ed, 2-(4-(2-(4-Chlorophenyl)-2-hydroxypropyl)-1H-1,2,3-triazol-1-yl)phenol] |  |  |  |  |  |  | 64 (≈ 194 µM) | 128 (≈ 388 µM) | 256 (≈ 776 µM) |  | 8 (≈ 24.3 µM) |  | 128 (≈ 388 µM)
22 | CC(O)(Cc1cn(-c2cc(Cl)ccc2O)nn1)c1ccc(Br)cc1 (stereo not shown) [Compound 3fa, 2-(4-(2-(4-Bromophenyl)-2-hydroxypropyl)-1H-1,2,3-triazol-1-yl)-4-chlorophenol] |  |  |  |  |  |  | 16 (≈ 39.2 µM) | 32 (≈ 78.3 µM) | 64 (≈ 157 µM) |  | 4 (≈ 9.79 µM) |  | 32 (≈ 78.3 µM)
23 | CC(O)(Cc1cn(-c2ccc(Cl)cc2O)nn1)c1ccc(Br)cc1 (stereo not shown) [Compound 3fb, 2-(4-(2-(4-Bromophenyl)-2-hydroxypropyl)-1H-1,2,3-triazol-1-yl)-5-chlorophenol] |  |  |  |  |  |  | 64 (≈ 157 µM) | 64 (≈ 157 µM) | 64 (≈ 157 µM) | 16 (≈ 39.2 µM) | 16 (≈ 39.2 µM) | 32 (≈ 78.3 µM) | 32 (≈ 78.3 µM)
24 | CC(O)(Cc1cn(-c2ccc(F)cc2O)nn1)c1ccc(Br)cc1 (stereo not shown) [Compound 3fc, 2-(4-(2-(4-Bromophenyl)-2-hydroxypropyl)-1H-1,2,3-triazol-1-yl)-5-fluorophenol] |  |  |  |  |  |  | 64 (≈ 163 µM) | 128 (≈ 326 µM) | 128 (≈ 326 µM) | 16 (≈ 40.8 µM) | 8 (≈ 20.4 µM) | 64 (≈ 163 µM) | 64 (≈ 163 µM)
25 | CC(O)(Cc1cn(-c2ccccc2O)nn1)c1ccc(Br)cc1 (stereo not shown) [Compound 3fd, 2-(4-(2-(4-Bromophenyl)-2-hydroxypropyl)-1H-1,2,3-triazol-1-yl)phenol] |  |  |  |  |  |  | 128 (≈ 342 µM) | 128 (≈ 342 µM) | 256 (≈ 684 µM) |  | 32 (≈ 85.5 µM) |  | 128 (≈ 342 µM)
